According to patent US9815802B2, “Herbicidally active N-(1-methyltetrazol-5-yl)benzoic acid amides” (BAYER CROPSCIENCE AKTIENGESELLSCHAFT, priority 2014, dated 2017):

Assays:
Format in all cases: in vivo
Setaria viridis [1] = experiment: Pre-emergence herbicidal action against SETVI
Text: (§1) Pre-Emergence Herbicidal Action Against Harmful Plants
(§2) Seeds of monocotyledonous and dicotyledonous weed plants and crop plants are laid out in wood-fiber pots in sandy loam and covered with soil. The compounds of the invention, formulated in the form of wettable powders (WP) or as emulsion concentrates (EC), are then applied to the surface of the covering soil in the form of an aqueous suspension or emulsion at a water application rate equating to 600 to 800 I/ha, with addition of 0.2% wetting agent. After the treatment, the pots are placed in a greenhouse and kept under good growth conditions for the trial plants. The damage to the test plants is scored visually after a test period of 3 weeks by comparison with untreated controls (herbicidal activity in percent (%): 100% activity=the plants have died, 0% activity=like control plants). For example, compounds no. 1-001, 1-002, 1-003, 1-004, 1-011, 1-012, 1-021, 1-022, 1-031, 1-032, 1-041, 1-042 and 1-044 at an application rate of 320 g/ha each have at least 80% efficacy against Echinocloa crusgalli, Abutilon theophrasti, Amaranthus retroflexus and Matricaria inodora.

Stellaria media [2] = experiment: Pre-emergence herbicidal action against STEME
Text: as §1, §2

Avena fatua [3] = experiment: Post-emergence herbicidal action against AVEFA
Description: (§3) Post-Emergence Herbicidal Action Against Harmful Plants Seeds of monocotyledonous and dicotyledonous weed and crop plants are laid out in sandy loam in wood-fiber pots, covered with soil and cultivated in a greenhouse under good growth conditions. 2 to 3 weeks after sowing, the test plants are treated at the one-leaf stage. The compounds of the invention, formulated in the form of wettable powders (WP) or as emulsion concentrates (EC), are then sprayed onto the green parts of the plants in the form of an aqueous suspension or emulsion at a water application rate equating to 600 to 800 I/ha, with addition of 0.2% wetting agent. After the test plants have been left to stand in the greenhouse under optimal growth conditions for about 3 weeks, the action of the preparations is assessed visually in comparison to untreated controls (herbicidal action in percent (%): 100% activity=the plants have died, 0% activity=like control plants).

Alopecurus myosuroides = experiment: Post-emergence herbicidal action against ALOMY
Description: as §3

Stellaria media [4] = experiment: Post-emergence herbicidal action against STEME; conditions: dosage 5 g/ha
Description: as §3

Setaria viridis [5] = experiment: Post-emergence herbicidal action against SETVI; conditions: dosage 5 g/ha
Description: as §3

Polygonum convolvulus [6] = experiment: Post-emergence herbicidal action against POLCO
Description: as §3

Avena fatua [7] = experiment: Pre-emergence herbicidal action against AVEFA; conditions: dosage 320 g/ha
Text: as §1, §2

Pharbitis purpureum = experiment: Pre-emergence herbicidal action against PHBPU; conditions: dosage 320 g/ha
Text: as §1, §2

Polygonum convolvulus [8] = experiment: Pre-emergence herbicidal action against POLCO; conditions: dosage 320 g/ha
Text: as §1, §2

## COSc1c(C)ccc(C(=O)Nc2nnnn2C)c1I
Setaria viridis [1]; dosage 320 g/ha
  Activity against SETVI: 30%
Stellaria media [2]; dosage 320 g/ha
  Activity against STEME: 70%

## COSc1c(C)ccc(C(=O)Nc2nnnn2C)c1OC
Setaria viridis [1]; dosage 320 g/ha
  Activity against SETVI: 40%
Stellaria media [2]; dosage 320 g/ha
  Activity against STEME: 60%

## COSc1c(C=O)ccc(C(=O)Nc2nnnn2C)c1C
Setaria viridis [1]; dosage 320 g/ha
  Activity against SETVI: 0%
Stellaria media [2]; dosage 320 g/ha
  Activity against STEME: 0%

## CCOSc1c(C)ccc(C(=O)Nc2nnnn2C)c1C
Avena fatua [3]; dosage 80 g/ha
  Activity against AVEFA: 100%
Alopecurus myosuroides; dosage 80 g/ha
  Activity against ALOMY: 90%

## CCc1ccc(C(=O)Nc2nnnn2C)c(C)c1SOC
Stellaria media [4]
  Activity against STEME: 100%
Setaria viridis [5]
  Activity against SETVI: 100%

## COSc1c(C(C)C)ccc(C(=O)Nc2nnnn2C)c1C
Avena fatua [3]; dosage 5 g/ha
  Activity against AVEFA: 40%
Alopecurus myosuroides; dosage 5 g/ha
  Activity against ALOMY: 60%

## Cc1c(C(=O)Nc2nnnn2C)ccc(C(C)C)c1S(C)(=O)=O
Avena fatua [3]; Table S, dosage 5 g/ha
  Activity against AVEFA: 30%
Alopecurus myosuroides; Table S, dosage 5 g/ha
  Activity against ALOMY: 60%

## Cc1c(C(=O)Nc2nnnn2C)ccc(I)c1S(C)(=O)=O
Avena fatua [3]; Table S, dosage 5 g/ha
  Activity against AVEFA: 0%
Alopecurus myosuroides; Table S, dosage 5 g/ha
  Activity against ALOMY: 20%

## Cc1c(C(=O)Nc2nnnn2C)ccc(C(F)(F)F)c1S(C)(=O)=O
Avena fatua [3]; Table S, dosage 5 g/ha
  Activity against AVEFA: 0%
Alopecurus myosuroides; Table S, dosage 5 g/ha
  Activity against ALOMY: 30%

## CCc1c(C(=O)Nc2nnnn2C)ccc(Cl)c1SOC
Polygonum convolvulus [6]; Table V, dosage 5 g/ha
  Activity against POLCO: 20%

## CCc1c(C(=O)Nc2nnnn2C)ccc(Br)c1S(C)(=O)=O
Polygonum convolvulus [6]; Table W, dosage 20 g/ha
  Activity against POLCO: 40%

## CCOSc1c(C(F)(F)F)ccc(C(=O)Nc2nnnn2C)c1CC
Polygonum convolvulus [6]; Table X, dosage 20 g/ha
  Activity against POLCO: 20%

## CCc1ccc(C(=O)Nc2nnnn2C)c(CC)c1S(=O)(=O)CC
Polygonum convolvulus [6]; Table Y, dosage 20 g/ha
  Activity against POLCO: 100%

## CCc1c(C(=O)Nc2nnnn2C)ccc(C(F)(F)F)c1S(=O)(=O)CC
Polygonum convolvulus [6]; Table Y, dosage 20 g/ha
  Activity against POLCO: 80%

## Cc1ccc(C(=O)Nc2nnnn2C)c(C)c1[S+](C)[O-] (centres unmarked) [1-001, 2,4-Dimethyl-3-(methylsulfinyl)-N-(1-methyl-1H-tetrazol-5-yl)benzamide]
Setaria viridis [1]; dosage 320 g/ha
  Activity against SETVI: 100%
Stellaria media [2]; dosage 320 g/ha
  Activity against STEME: 90%

## CCS(=O)(=O)c1c(C)ccc(C(=O)Nc2nnnn2C)c1C [1-004]
Avena fatua [7]
  Activity against AVEFA: 90%
Pharbitis purpureum
  Activity against PHBPU: 80%

## CCc1ccc(C(=O)Nc2nnnn2C)c(C)c1S(C)(=O)=O [1-012]
Setaria viridis [1]; dosage 80 g/ha
  Activity against SETVI: 100%
Stellaria media [2]; dosage 80 g/ha
  Activity against STEME: 90%

## CCc1c(C(=O)Nc2nnnn2C)ccc(C)c1S(C)(=O)=O [1-032]
Avena fatua [7]
  Activity against AVEFA: 80%
Pharbitis purpureum
  Activity against PHBPU: 80%

## CCc1ccc(C(=O)Nc2nnnn2C)c(CC)c1[S+](C)[O-] (centres unmarked) [1-041]
Pharbitis purpureum
  Activity against PHBPU: 80%
Polygonum convolvulus [8]
  Activity against POLCO: 80%

## CCc1ccc(C(=O)Nc2nnnn2C)c(CC)c1S(C)(=O)=O [1-042]
Pharbitis purpureum
  Activity against PHBPU: 100%
Polygonum convolvulus [8]
  Activity against POLCO: 100%

## Cc1c(C(=O)Nc2nnnn2C)cccc1S(C)(=O)=O [4-080]
Setaria viridis [1]; dosage 80 g/ha
  Activity against SETVI: 20%
Stellaria media [2]; dosage 80 g/ha
  Activity against STEME: 50%

## CCc1c(C(=O)Nc2nnnn2C)ccc(Cl)c1S(C)(=O)=O [4-192, reference compound]
Pharbitis purpureum
  Activity against PHBPU: 80%
Polygonum convolvulus [8]
  Activity against POLCO: 60%

## COc1ccc(C(=O)Nc2nnnn2C)c(C)c1S(C)(=O)=O [4-439]
Setaria viridis [1]; dosage 80 g/ha
  Activity against SETVI: 0%
Stellaria media [2]; dosage 80 g/ha
  Activity against STEME: 70%
Avena fatua [7]
  Activity against AVEFA: 50%
Pharbitis purpureum
  Activity against PHBPU: 60%

## CCc1c(C(=O)Nc2nnnn2C)ccc(Br)c1SOC [4-503, reference compound]
Pharbitis purpureum
  Activity against PHBPU: 50%
Polygonum convolvulus [8]
  Activity against POLCO: 60%

## Cc1ccc(C(=O)Nc2nnnn2C)c(I)c1S(C)(=O)=O [4-791]
Avena fatua [7]
  Activity against AVEFA: 0%
Pharbitis purpureum
  Activity against PHBPU: 30%

## CCS(=O)(=O)c1c(C)ccc(C(=O)Nc2nnnn2C)c1I [4-794]
Avena fatua [7]
  Activity against AVEFA: 10%
Pharbitis purpureum
  Activity against PHBPU: 60%

## COSc1c(C)ccc(C(=O)Nc2nnnn2C)c1[N+](=O)[O-] [4-796]
Setaria viridis [1]; dosage 320 g/ha
  Activity against SETVI: 0%
Stellaria media [2]; dosage 320 g/ha
  Activity against STEME: 50%

## Cc1ccc(C(=O)Nc2nnnn2C)c([N+](=O)[O-])c1S(C)(=O)=O [4-797]
Avena fatua [7]
  Activity against AVEFA: 0%
Pharbitis purpureum
  Activity against PHBPU: 0%
